Drawing on patent US20240150321A1, “PYRAZOLYLSULFONAMIDE COMPOUNDS AND THEIR USE IN THERAPY” (HOTSPOT THERAPEUTICS, INC., priority 2022, published 2024), this text covers IC50 for 28 compounds.

The structures appear in SMILES notation. Where only a bound is given, the exact number is not on record here.

Test [1] concerns NF-kB reporter in Jurkat cells. Nature of the test: NF-kB reporter assay in Jurkat cells stimulated with aCD3/aCD28/PMA. In kind it is cell-based. The settings on record: Homo sapiens; Jurkat cells, 1 hr compound pre-incubation, aCD3/aCD28/PMA stimulation 4 hr, One-Glo readout; read-out: NF-kB Reporter Assay IC50. An outline of the steps: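 Jurkat cells (25,000/well, serum-free RPMI) were pre-incubated 1 h at 37° C with serially diluted compound, then stimulated 4 h with aCD3/aCD28/PMA at final […]. NF-kB reporter activity was read by One-Glo luminescence; IC50 values reported.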
For orientation: In a reporter assay the amount or activity of a reporter protein is the signal.

The target in test [2] is Avi-tagged FL MALT-1 (Homo sapiens (Human), UniProt Q9UDY8). Nature of the test: MALT-1 Fluorogenic Peptide Cleavage Assay (MALT1 inhibition assay). In kind it is biochemical. The settings on record: Ac-LRSR-AMC peptide substrate, 30 min pre-incubation, 90 min reaction at room temperature. An outline of the steps:
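Full-length Avi-tagged human MALT-1 (40 nM working stock) pre-incubated 30 min at RT with compound in 25 mM HEPES pH 6.89, 660 mM sodium citrate, 1 mM TCEP, […], 0.05% CHAPS, 2% DMSO. Ac-LRSR-AMC added at Km (50 μM working stock) or 10×Km (280 μM working stock); 90 min at RT, AMC fluorescence (ex 342/em 441 nm), IC50 from % inhibition curves.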

Avi-tagged FL MALT-1, sequence (Q9UDY8 whole entry): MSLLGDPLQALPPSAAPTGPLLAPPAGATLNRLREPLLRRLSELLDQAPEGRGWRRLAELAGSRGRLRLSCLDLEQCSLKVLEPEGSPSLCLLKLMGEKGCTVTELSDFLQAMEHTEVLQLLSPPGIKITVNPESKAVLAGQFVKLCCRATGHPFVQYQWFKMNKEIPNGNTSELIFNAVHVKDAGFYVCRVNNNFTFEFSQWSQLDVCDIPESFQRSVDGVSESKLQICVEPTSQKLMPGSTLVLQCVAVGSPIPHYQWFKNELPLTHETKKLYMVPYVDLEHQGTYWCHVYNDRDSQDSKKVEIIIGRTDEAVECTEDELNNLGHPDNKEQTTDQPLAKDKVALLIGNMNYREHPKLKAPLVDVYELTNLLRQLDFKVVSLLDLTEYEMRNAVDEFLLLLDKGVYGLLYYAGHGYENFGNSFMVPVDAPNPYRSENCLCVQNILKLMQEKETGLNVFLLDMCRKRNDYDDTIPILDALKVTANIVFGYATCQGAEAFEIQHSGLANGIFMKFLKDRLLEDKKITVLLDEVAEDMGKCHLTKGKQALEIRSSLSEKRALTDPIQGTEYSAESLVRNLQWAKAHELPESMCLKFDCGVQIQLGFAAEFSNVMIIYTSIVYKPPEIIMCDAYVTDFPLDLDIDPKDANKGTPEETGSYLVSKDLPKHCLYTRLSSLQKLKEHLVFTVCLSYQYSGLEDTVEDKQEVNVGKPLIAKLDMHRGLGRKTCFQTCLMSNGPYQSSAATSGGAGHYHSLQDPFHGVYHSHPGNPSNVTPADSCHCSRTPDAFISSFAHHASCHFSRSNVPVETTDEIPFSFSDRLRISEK

On to `CCc1ccc2cnn(C)c2c1NS(=O)(=O)c1cnn(-c2ccnc(OC(F)(F)F)c2)c1` [Compound I-61, N-(6-Ethyl-1-Methyl-1H-Indazol-7-yl)-1-(2-(Trifluoromethoxy) Pyridin-4-yl)-1H-Pyrazole-4-Sulfonamide], for which the IC50 in test [1] and in test [2] was 1000 to 2500 nM in each case.

As to `CCc1ccc2[nH]nc(C)c2c1N(C)S(=O)(=O)c1cnn(-c2ccnc(C(F)(F)F)c2)c1` [Compound I-62, N-(5-Ethyl-3-Methyl-1H-Indazol-4-yl)-N-Methyl-1-(2-(Trifluoromethyl)Pyridin-4-yl)-1H-Pyrazole-4-Sulfonamide], the IC50 – broadly, the concentration that gives 50% inhibition – is 400 to 1000 nM in test [1] and no more than 400 nM in test [2].

Take `Cc1ccnc(-n2cc(S(=O)(=O)Nc3cccc4[nH]nc(C)c34)cn2)c1` [Compound I-63, N-(3-Methyl-1H-Indazol-4-yl)-1-(4-Methylpyridin-2-yl)-1H-Pyrazole-4-Sulfonamide]: the 50% inhibitory concentration (IC50) in test [1] is less than 400 nM; in test [2], greater than 2500 nM.

As for `Cc1n[nH]c2cccc(N(C)S(=O)(=O)c3cnn(-c4ccnc(C(F)(F)F)c4)c3)c12` [Compound I-64, N-Methyl-N-(3-Methyl-1H-Indazol-4-yl)-1-(2-(Trifluoromethyl)Pyridin-4-yl)-1H-Pyrazole-4-Sulfonamide], the IC50 is greater than 2500 nM in test [1] and 1000 to 2500 nM in test [2].

Regarding `Cc1n[nH]c2cccc(N(C)S(=O)(=O)c3cnn(-c4cc(C(F)(F)F)ccn4)c3)c12` [Compound I-65, N-Methyl-N-(3-Methyl-1H-Indazol-4-yl)-1-(4-(Trifluoromethyl)Pyridin-2-yl)-1H-Pyrazole-4-Sulfonamide], the IC50 in test [1] and in test [2] was 400 to 1000 nM in each case.

Take `Cc1ccnc(-n2cc(S(=O)(=O)N(C)c3cccc4[nH]nc(C)c34)cn2)c1` [Compound I-66, N-Methyl-N-(3-Methyl-1H-Indazol-4-yl)-1-(4-Methylpyridin-2-yl)-1H-Pyrazole-4-Sulfonamide]: the IC50 in test [1] and in test [2] was greater than 2500 nM in each case.

As for `Cc1ccc2[nH]nc(C)c2c1NS(=O)(=O)c1cnn(-c2cc(C(F)(F)F)ccn2)c1` [Compound I-67], the half-maximal inhibitory concentration (IC50) was less than 400 nM in test [1] and no more than 400 nM in test [2].

In the case of `C=C(CO)c1ccnc(-n2cc(S(=O)(=O)Nc3c(OC)ccc4cnn(C)c34)cn2)c1` [Compound I-68, 1-(4-(3-Hydroxyprop-1-EN-2-yl)Pyridin-2-yl)-N-(6-Methoxy-1-Methyl-1H-Indazol-7-yl)-1H-Pyrazole-4-Sulfonamide], the IC50 in test [1] is less than 400 nM; in test [2], no more than 400 nM.

With `COc1ccc2cnn(C)c2c1NS(=O)(=O)c1cnn(-c2cc(C3(F)COC3)ccn2)c1` [Compound I-69, 1-(4-(3-Fluorooxetan-3-yl)Pyridin-2-yl)-N-(6-Methoxy-1-Methyl-1H-Indazol-7-yl)-1H-Pyrazole-4-Sulfonamide], the IC50 in test [1] was less than 400 nM; in test [2] it was no more than 400 nM.

Take `[2H]C([2H])([2H])Oc1ccc2cnn(C)c2c1NS(=O)(=O)c1cnn(-c2cc(C(F)(F)F)ccn2)c1` [Compound I-70, N-(6-(Methoxy-D3)-1-Methyl-1H-Indazol-7-yl)-1-(4-(Trifluoromethyl)Pyridin-2-yl)-1H-Pyrazole-4-Sulfonamide]: the IC50 was less than 400 nM in test [1] and no more than 400 nM in test [2].

`[2H]C([2H])([2H])c1ccc2cnn(C)c2c1NS(=O)(=O)c1cnn(-c2cc(C(F)(F)F)ccn2)c1` [Compound I-71, N-(1-Methyl-6-(Methyl-D3)-1H-Indazol-7-yl)-1-(4-(Trifluoromethyl)Pyridin-2-yl)-1H-Pyrazole-4-Sulfonamide]: the concentration for half-maximal inhibition (IC50) in test [1] is less than 400 nM; in test [2], no more than 400 nM.

Consider `COc1ccc2cnn(C)c2c1NS(=O)(=O)c1cnn(-c2cc(C(F)(F)F)ccn2)c1` [Compound I-72, N-(6-Methoxy-1-(Methyl-D3)-1H-Indazol-7-yl)-1-(4-(Trifluoromethyl)Pyridin-2-yl)-1H-Pyrazole-4-Sulfonamide], for which the IC50 was less than 400 nM in test [1] and no more than 400 nM in test [2].

As to `Cc1n[nH]c2cccc(NS(=O)(=O)c3cnn(-c4cc(C(F)(F)F)ccn4)c3)c12` [Compound I-73, N-(3-Methyl-1H-Indazol-4-yl)-1-(4-(Trifluoromethyl)Pyridin-2-yl)-1H-Pyrazole-4-Sulfonamide], the IC50 in test [1] is less than 400 nM; in test [2] it was 1000 to 2500 nM.

Regarding `Cc1ccc2[nH]nc(C)c2c1NS(=O)(=O)c1cnn(-c2ccnc(C(F)(F)F)c2)c1` [Compound I-74, N-(3,5-Dimethyl-1H-Indazol-4-yl)-1-(2-(Trifluoromethyl)Pyridin-4-yl)-1H-Pyrazole-4-Sulfonamide], the half-inhibitory concentration (IC50) is 1000 to 2500 nM in test [1] and no more than 400 nM in test [2].

For the compound `Cn1ncc2cccc(NS(=O)(=O)c3cnn(-c4ccnc(C5CC5)c4)c3)c21` [Compound I-75, 1-(2-Cyclopropylpyridin-4-yl)-N-(1-Methyl-1H-Indazol-7-yl)-1H-Pyrazole-4-Sulfonamide], the IC50 in test [1] is 400 to 1000 nM; in test [2], greater than 2500 nM.

For `Cn1ncc2cccc(NS(=O)(=O)c3cnn(-c4cc(C5CC5)ccn4)c3)c21` [Compound I-76, 1-(4-Cyclopropylpyridin-2-yl)-N-(1-Methylindazol-7-yl)Pyrazole-4-Sulfonamide], the IC50 was less than 400 nM in test [1] and 1000 to 2500 nM in test [2].

Turning to `COc1ccc2cnn(C)c2c1NS(=O)(=O)c1cnn(-c2ccnc(C3CC3)c2)c1` [Compound I-77, 1-(2-Cyclopropylpyridin-4-yl)-N-(6-Methoxy-1-Methyl-1H-Indazol-7-yl)-1H-Pyrazole-4-Sulfonamide], the IC50 in test [1] is less than 400 nM; in test [2], no more than 400 nM.

Turning to `CCc1ccc2[nH]nc(C)c2c1N(C)S(=O)(=O)c1cnn(-c2cc(C)ccn2)c1` [Compound I-78, N-(5-Ethyl-3-Methyl-1H-Indazol-4-yl)-N-Methyl-1-(4-Methylpyridin-2-yl)Pyrazole-4-Sulfonamide], the concentration for half-maximal inhibition (IC50) is 400 to 1000 nM in test [1] and no more than 400 nM in test [2].

With `COc1ccc2[nH]nc(C)c2c1NS(=O)(=O)c1cnn(-c2ccnc(C(F)(F)F)c2)c1` [Compound I-79, N-(5-Methoxy-3-Methyl-1H-Indazol-4-yl)-1-(2-(Trifluoromethyl)Pyridin-4-yl)-1H-Pyrazole-4-Sulfonamide], the half-inhibitory concentration (IC50) is less than 400 nM in test [1] and no more than 400 nM in test [2].

For the compound `COc1ccc2[nH]nc(C)c2c1N(C)S(=O)(=O)c1cnn(-c2ccnc(C(F)(F)F)c2)c1` [Compound I-80, N-(5-methoxy-3-Methyl-1H-Indazol-4-yl)-N-Methyl-1-(2-(Trifluoromethyl)Pyridin-4-yl)-1H-Pyrazole-4-Sulfonamide], the IC50 was 1000 to 2500 nM in test [1] and no more than 400 nM in test [2].

For the compound `COc1ccc2[nH]nc(C)c2c1NS(=O)(=O)c1cnn(-c2cc(C(F)(F)F)ccn2)c1` [Compound I-81, N-(5-Methoxy-3-Methyl-1H-Indazol-4-yl)-1-(4-(Trifluoromethyl)Pyridin-2-yl)-1H-Pyrazole-4-Sulfonamide], the 50% inhibitory concentration (IC50) in test [1] is less than 400 nM; in test [2], no more than 400 nM.

Regarding `COc1ccc2[nH]nc(C)c2c1N(C)S(=O)(=O)c1cnn(-c2cc(C(F)(F)F)ccn2)c1` [Compound I-82, N-(5-Methoxy-3-Methyl-1H-Indazol-4-yl)-N-Methyl-1-(4-(Trifluoromethyl)Pyridin-2-yl)-1H-Pyrazole-4-Sulfonamide], the figures for the concentration for half-maximal inhibition (IC50) in test [1] and in test [2] were less than 400 nM and no more than 400 nM, respectively.

Turning to `COc1ccc2cnn(C)c2c1NS(=O)(=O)c1cn(-c2cc(C(F)(F)F)ccn2)nc1C` [Compound I-83, N-(6-Methoxy-1-Methyl-1H-Indazol-7-yl)-3-Methyl-1-(4-(Trifluoromethyl)Pyridin-2-yl)-1H-Pyrazole-4-Sulfonamide], the values for the IC50 in test [1] and in test [2] were less than 400 nM and no more than 400 nM, respectively.

As to `COc1ccc2cnn(C)c2c1NS(=O)(=O)c1cnn(-c2cc(C(F)(F)F)ccn2)c1C` [Compound I-84, N-(6-Methoxy-1-Methyl-1H-Indazol-7-yl)-5-Methyl-1-(4-(Trifluoromethyl)Pyridin-2-yl)-1H-Pyrazole-4-Sulfonamide], the concentration for half-maximal inhibition (IC50) in test [1] was less than 400 nM; in test [2], no more than 400 nM.

Turning to `Cn1ncc2ccc(Cl)c(NS(=O)(=O)c3cnn(-c4cc(C(F)(F)F)ccn4)c3)c21` [Compound I-85, N-(6-chloro-1-Methyl-1H-Indazol-7-yl)-1-(4-(Trifluoromethyl)Pyridin-2-yl)-1H-Pyrazole-4-Sulfonamide], the half-maximal inhibitory concentration (IC50) was less than 400 nM in test [1] and no more than 400 nM in test [2].

Regarding `Cn1ncc2cccc(NS(=O)(=O)c3cnn(-c4cc(Cl)ccn4)c3)c21` [Compound I-86, 1-(4-Chloropyridin-2-yl)-N-(1-Methyl-1H-Indazol-7-yl)-1H-Pyrazole-4-Sulfonamide], the IC50 in test [1] is less than 400 nM; in test [2] it was greater than 2500 nM.

For the compound `COc1ncc2cnn(C)c2c1NS(=O)(=O)c1cnn(-c2ccnc(C(F)(F)F)c2)c1` [Compound I-87, N-(6-Methoxy-1-Methyl-1H-Pyrazolo[4,3-C]Pyridin-7-yl)-1-(2-(Trifluoromethyl)Pyridin-4-yl)-1H-Pyrazole-4-Sulfonamide], the IC50 in test [1] was less than 400 nM; in test [2] it was no more than 400 nM.

With `Cc1n[nH]c2cccc(NS(=O)(=O)c3cnn(-c4ccnc(C5CC5)c4)c3)c12` [Compound I-88, 1-(2-Cyclopropylpyridin-4-yl)-N-(3-Methyl-1H-Indazol-4-yl)-1H-Pyrazole-4-Sulfonamide], the values for the IC50 in test [1] and in test [2] were less than 400 nM and greater than 2500 nM, respectively.
